Molecules are shown by their SMILES.

The subject of this experiment is Ishikawa cell line (Var. I) of human endometrial adenocarcinoma. The experiment can be described thus: Ishikawa cell alkaline phosphatase assay of estrogenic activity. The experiment is classed as cell-based. From the text: The in vitro assay used was developed by Littlefield in 1990 (Endocrinology 1990, 127, p. 2757-2762).
The variant of the cell line used is sensitive to estrogens, to which it responds not through a proliferative activity, but through an activity which stimulates an enzyme, alkaline phosphatase. This assay provides, in a sensitive and specific manner, information on the estrogenic activity since, among steroids, only the estrogens respond to this assay and succeed in stimulating the enzyme activity. The estrogenic activity can also be triggered by non-steroidal substances having a “estrogen-like” effect, such as phytoestrogens. The estrogenic responses obtained below are blocked by the reference anti-estrogen brought into contact, which indicates an estrogen receptor-mediated activity.
The model is an Ishikawa cell line (Var. I) of human endometrial adenocarcinoma (established by Nishida: Acta Obstet Gynaec Jap 1985, 37: 1103-1111).
Specifically, alkaline phosphatase hydrolyzes p-nitrophenol phosphate to p-nitrophenol, which gives a colored reaction.
The assay consists in measuring the absorbance at 405 nm after incubation for 72 h.
Two controls were used: • positive control=17β-estradiol, • negative control=antiestrogen ICI182, 780 from Zeneca. […]

Turning to `C[C@]12CC[C@@H]3c4ccc(O)cc4CC[C@H]3[C@@H]1CC[C@@H]2O` [17β-Estradiol, 17β-estradiol], the “estrogenic activity / response (in words)” value (alkaline phosphatase activation in Ishikawa cells, absorbance at 405 nm after 72 h) is listed as “expected dose-effect relationship”.

Turning to `C[C@]12CC[C@@H]3c4ccc(O)cc4C[C@@H](CCCCCCCCC[S+]([O-])CCCC(F)(F)C(F)(F)F)[C@H]3[C@@H]1CC[C@@H]2O` (stereo partly drawn) [reference anti-estrogen], the “blocking of the estrogenic responses by the anti-estrogen” value (reference anti-estrogen brought into contact, indicates estrogen receptor-mediated activity) was “blocked”.

(Values after US20050019438A1, “Hop extracts and use thereof in the production of a medicament having estrogenic properties” (priority 2001, published 2005).)
